Source: patent US5854050A, “Enzyme with protease activity” (Novo Nordisk A/S, priority 1993, dated 1998)

What was measured:
[1] = test system: Ground defatted feed quality soy; experiment: Two-step hydrolysis of feed soy (°Brix, osmolality, DH); format: biochemical
Experimental: Ground defatted feed quality soy was mixed with deionised water under the conditions described below. The hydrolysis was carried out in two steps in order to simulate the pH conditions in the stomach and the small intestine.
70 g ground defatted soy
Time 1st step 180 minutes
Enzymes 1st step I) Pepsin 1.92 g
II) I + Bio-Feed Pro 3.0 L
2nd step I) Pancreatin 6 g
The enzymes were added at start 0 minutes. During the hydrolysis ° Brix and osmolality were measured to follow the reaction course. According to Adler-Nissen (1986) the osmolality values can be used for calculation of the Degree of Hydrolysis (DH) by the following equation: [formula] Where Δ is the increase in osmolality mOSM, S % is protein concentration, ω is the calibration factor for the osmometer, htot is the total number of peptide bonds in the protein substrate (meqv/g protein), and fosm is the factor for converting % to g/kg H2 O. [formula]

Hen Lysozyme = experiment: Cleaning of contact lenses: removal of denatured 14C-lysozyme in 3% H2O2, pH 3.5; format: biochemical; conditions: 3% H2O2, pH 3.5, four hours, 25° C.; FIG. 7
Excerpt: The experimental protocol was as follows:
Materials: Hen Lysozyme, L-6878 from Sigma "Rythmic" contact lens' from Essilor (Type II lens, high-water, nonionic) Protease I produced as described above Protease II produced as described above Porcine pepsin, P-6887 from Sigma Subtilisin carlsberg, Clear-Lens Pro® (Novo Nordisk A/S).
Standard buffer: 0.05M Na2 HPO4, 0.9% NaCl pH 7.5
Scintillation liquid, Optiphase "HiSafe III"
Hen lysozyme from Sigma was labelled with ^14 C through reductive methylation and purified.
A solution was made containing 0.05M Na2 HPO4, 0.9% NaCl and 0.2 mg/ml lysozyme pH 7.5. An amount of ^14 C-labelled lysozyme was added so the CPM (Counts Per Minute) is approximately 200.000. 1.0 ml of the solution was transferred to a scintillation glass. The contact lens was added and the glass placed in a water-bath at 85° C. for 30 minutes.
The contact lens was then rinsed in 3×3 ml reagent buffer. It was quartered with a scalpel. Each quarter was transferred to a new scintillation glass containing 3 ml of the reagent buffer. […]
The reaction took place over four hours at 25° C. […] 12 ml scintillation liquid was added and CPM was measured in a Packard 2500 TR liquid scintillation counter. […]
The relative amount of lysozyme removed from the lens during the combined disinfection/cleaning was calculated from the mass balance of each quarter lens. […]

[2] = STEP II (pH 6.5, with Pancreatin), 180 min

With Pepsin the mOSM ([1]; STEP I (pH 4.0, 40° C.), 0 min) was 347 mOSM, the “mOSM INCREASE” value ([1]; STEP I (pH 4.0, 40° C.), 0 min) was 0 mOSM and the “°BRIX” value ([1]; STEP I (pH 4.0, 40° C.), 0 min) was 5.09 °BRIX. The “% DH (Degree of Hydrolysis)” value ([1]; STEP I (pH 4.0, 40° C.), 0 min, calculated from osmolality) was 0%, the “% DH (Degree of Hydrolysis)” value ([1]; STEP I, 5 min) was 2.86% and the mOSM ([1]; STEP I, 5 min) was 362 mOSM. The “mOSM INCREASE” value ([1]; STEP I, 5 min) was 15 mOSM, the “°BRIX” value ([1]; STEP I, 5 min) was 6.135 °BRIX and the “% DH (Degree of Hydrolysis)” value ([1]; STEP I, 10 min) was 2.86%. For the same molecule, the mOSM ([1]; STEP I, 10 min) was 362 mOSM, the “mOSM INCREASE” value ([1]; STEP I, 10 min) was 15 mOSM and the “°BRIX” value ([1]; STEP I, 10 min) was 6.505 °BRIX. For the same molecule, the “% DH (Degree of Hydrolysis)” value ([1]; STEP I, 15 min) was 2.57%, the mOSM ([1]; STEP I, 15 min) was 360.5 mOSM and the “mOSM INCREASE” value ([1]; STEP I, 15 min) was 13.5 mOSM. For the same molecule, the “°BRIX” value ([1]; STEP I, 15 min) was 6.625 °BRIX, the “% DH (Degree of Hydrolysis)” value ([1]; STEP I, 30 min) was 3.14% and the mOSM ([1]; STEP I, 30 min) was 363.5 mOSM. For the same molecule, the “mOSM INCREASE” value ([1]; STEP I, 30 min) was 16.5 mOSM, the “°BRIX” value ([1]; STEP I, 30 min) was 6.9275 °BRIX and the “% DH (Degree of Hydrolysis)” value ([1]; STEP I, 45 min) was 3.62%. The mOSM ([1]; STEP I, 45 min) was 366 mOSM, the “mOSM INCREASE” value ([1]; STEP I, 45 min) was 19 mOSM and the “°BRIX” value ([1]; STEP I, 45 min) was 7.345 °BRIX. The “% DH (Degree of Hydrolysis)” value ([1]; STEP I, 60 min) was 4.00%, the mOSM ([1]; STEP I, 60 min) was 368 mOSM and the “mOSM INCREASE” value ([1]; STEP I, 60 min) was 21 mOSM. The “°BRIX” value ([1]; STEP I, 60 min) was 7.745 °BRIX, the “% DH (Degree of Hydrolysis)” value ([1]; STEP I, 90 min) was 4.47% and the mOSM ([1]; STEP I, 90 min) was 370.5 mOSM. The “mOSM INCREASE” value ([1]; STEP I, 90 min) was 23.5 mOSM, the “°BRIX” value ([1]; STEP I, 90 min) was 8.175 °BRIX and the “% DH (Degree of Hydrolysis)” value ([1]; STEP I, 120 min) was 4.95%. For the same molecule, the mOSM ([1]; STEP I, 120 min) was 373 mOSM, the “mOSM INCREASE” value ([1]; STEP I, 120 min) was 26 mOSM and the “°BRIX” value ([1]; STEP I, 120 min) was 8.695 °BRIX. For the same molecule, the “% DH (Degree of Hydrolysis)” value ([1]; STEP I, 180 min) was 6.57%, the mOSM ([1]; STEP I, 180 min) was 381.5 mOSM and the “mOSM INCREASE” value ([1]; STEP I, 180 min) was 34.5 mOSM. For the same molecule, the “°BRIX” value ([1]; STEP I, 180 min) was 9.195 °BRIX, the mOSM [1, 2] was 468 mOSM and the “mOSM INCREASE” value [1, 2] was 0 mOSM. The “°BRIX” value [1, 2] was 12.965 °BRIX, the mOSM ([1]; STEP II, 185 min) was 996 mOSM and the “mOSM INCREASE” value ([1]; STEP II, 185 min) was 528 mOSM. The “°BRIX” value ([1]; STEP II, 185 min) was 15.135 °BRIX, the mOSM ([1]; STEP II, 190 min) was 1009 mOSM and the “mOSM INCREASE” value ([1]; STEP II, 190 min) was 541 mOSM. For the same molecule, the “°BRIX” value ([1]; STEP II, 190 min) was 15.4025 °BRIX, the mOSM ([1]; STEP II, 195 min) was 1015.5 mOSM and the “mOSM INCREASE” value ([1]; STEP II, 195 min) was 547.5 mOSM. The “°BRIX” value ([1]; STEP II, 195 min) was 15.637 °BRIX, the mOSM ([1]; STEP II, 210 min) was 1037.5 mOSM and the “mOSM INCREASE” value ([1]; STEP II, 210 min) was 569.5 mOSM. The “°BRIX” value ([1]; STEP II, 210 min) was 16.135 °BRIX, the mOSM ([1]; STEP II, 225 min) was 1054.5 mOSM and the “mOSM INCREASE” value ([1]; STEP II, 225 min) was 586.5 mOSM. The “°BRIX” value ([1]; STEP II, 225 min) was 16.415 °BRIX, the mOSM ([1]; STEP II, 240 min) was 1068.5 mOSM and the “mOSM INCREASE” value ([1]; STEP II, 240 min) was 600.5 mOSM. The “°BRIX” value ([1]; STEP II, 240 min) was 16.705 °BRIX, the mOSM ([1]; STEP II, 270 min) was 1087.5 mOSM and the “mOSM INCREASE” value ([1]; STEP II, 270 min) was 619.5 mOSM. The “°BRIX” value ([1]; STEP II, 270 min) was 17.075 °BRIX, the mOSM ([1]; STEP II, 300 min) was 1111 mOSM and the “mOSM INCREASE” value ([1]; STEP II, 300 min) was 643 mOSM. For the same molecule, the “°BRIX” value ([1]; STEP II, 300 min) was 17.437 °BRIX, the mOSM ([1]; STEP II, 360 min) was 1148 mOSM and the “mOSM INCREASE” value ([1]; STEP II, 360 min) was 680 mOSM. For the same molecule, the “°BRIX” value ([1]; STEP II, 360 min) was 18.075 °BRIX.

B1: Subtilisin carlsberg (protein, UniProt P00780 106-379, looked up)
Subtilisin Carlsberg: AQTVPYGIPLIKADKVQAQGFKGANVKVAVLDTGIQASHPDLNVVGGASFVAGEAYNTDGNGHGTHVAGTVAALDNTTGVLGVAPSVSLYAVKVLNSSGSGSYSGIVSGIEWATTNGMDVINMSLGGASGSTAMKQAVDNAYAKGVVVVAAAGNSGSSGNTNTIGYPAKYDSVIAVGAVDSNSNRASFSSVGAELEVMAPGAGVYSTYPTNTYATLNGTSMASPHVAGAAALILSKHPNLSASQVRNRLSSTATYLGSSFYYGKGLINVEAAAQ
notes: Subtilisin carlsberg, Clear-Lens Pro® (Novo Nordisk A/S), presently used serin protease for contact lens cleaning
For B1, the “performance in contact lens cleaning (lysozyme removed)” value (Hen Lysozyme) was “poor performance”.
